Laboratory results taken from patent publication US20260085058A1, “DEGRADERS OF SON OF SEVENLESS HOMOLOG 1” (H. LEE MOFFITT CANCER CENTER AND RESEARCH INSTITUTE, INC., priority 2022, published 2026).

Target: T1, SOS1 (Homo sapiens, UniProt Q07889)
T1 sequence (Q07889 1-1333): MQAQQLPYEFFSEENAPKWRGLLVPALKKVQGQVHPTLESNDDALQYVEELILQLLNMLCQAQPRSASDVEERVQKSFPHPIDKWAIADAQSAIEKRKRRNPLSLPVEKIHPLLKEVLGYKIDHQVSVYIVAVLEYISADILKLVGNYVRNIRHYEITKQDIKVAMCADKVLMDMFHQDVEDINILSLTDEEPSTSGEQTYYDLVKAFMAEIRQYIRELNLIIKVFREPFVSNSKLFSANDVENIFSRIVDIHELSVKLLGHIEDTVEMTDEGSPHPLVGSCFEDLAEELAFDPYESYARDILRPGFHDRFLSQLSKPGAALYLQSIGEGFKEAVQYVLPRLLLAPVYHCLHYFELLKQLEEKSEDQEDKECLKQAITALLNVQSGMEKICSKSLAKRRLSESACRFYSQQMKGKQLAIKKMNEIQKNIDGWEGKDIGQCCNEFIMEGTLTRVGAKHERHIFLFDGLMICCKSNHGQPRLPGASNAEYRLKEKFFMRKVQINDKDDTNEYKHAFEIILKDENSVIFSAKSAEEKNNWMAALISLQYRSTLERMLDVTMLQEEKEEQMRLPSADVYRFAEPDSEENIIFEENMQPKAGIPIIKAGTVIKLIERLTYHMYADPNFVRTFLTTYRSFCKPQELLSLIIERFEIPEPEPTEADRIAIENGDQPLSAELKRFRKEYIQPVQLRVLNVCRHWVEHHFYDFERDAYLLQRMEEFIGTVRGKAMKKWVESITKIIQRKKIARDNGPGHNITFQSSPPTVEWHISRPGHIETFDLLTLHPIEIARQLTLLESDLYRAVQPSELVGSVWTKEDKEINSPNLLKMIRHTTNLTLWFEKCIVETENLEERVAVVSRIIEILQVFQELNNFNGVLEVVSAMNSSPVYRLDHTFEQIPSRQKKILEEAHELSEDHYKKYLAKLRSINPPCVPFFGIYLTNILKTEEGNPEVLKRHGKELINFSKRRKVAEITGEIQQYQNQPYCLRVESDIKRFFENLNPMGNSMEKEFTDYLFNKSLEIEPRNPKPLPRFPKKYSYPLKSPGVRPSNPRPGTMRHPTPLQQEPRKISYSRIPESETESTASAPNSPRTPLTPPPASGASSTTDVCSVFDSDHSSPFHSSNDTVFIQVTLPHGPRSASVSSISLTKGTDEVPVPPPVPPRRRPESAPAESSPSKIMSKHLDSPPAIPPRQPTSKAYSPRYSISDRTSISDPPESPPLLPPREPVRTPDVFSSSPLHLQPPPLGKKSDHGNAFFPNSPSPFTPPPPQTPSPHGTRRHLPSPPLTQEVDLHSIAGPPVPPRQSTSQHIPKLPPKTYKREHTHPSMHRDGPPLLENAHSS
Assay: SOS1 degradation by immunoblot in colorectal cancer cell lines
Format: cell-based
Parameters: endogenous in cells; host or cells: SW620, HCT116, C2BB, SW1417
Conditions: SW620 cells, 1 μM, different time points
Method: SW620, HCT116, C2BB, and SW1417 were purchased from the American Type Culture Collection. […] They were incubated under a 5% (v/v) CO2 atmosphere at 37° C.
Cells were plated in a 100 mm dish for incubation overnight before harvest for immunoblot. For drug treatment, cell confluency was checked prior to proceeding with the treatment. […] Approximately 40 μg protein samples were loaded into each well and separated by SDS-PAGE gel. After protein transfer onto nitrocellulose membranes, 5% skim milk in TBST was used to block the membranes for 1 hour at room temperature prior to incubation with primary antibodies overnight at 4° C. At the completion, a horseradish peroxidase-conjugated secondary antibody was applied at room temperature for 1 hour. The bands were visualized using Western Lightning Plus-ECL (PerkinElmer).

Time-dependent SOS1 degradation: not observed
Structure (SMILES): COc1cc2c(N[C@H](C)c3cc(N)cc(C(F)(F)F)c3)nc(C)nc2cc1OCc1cccc2c1C(=O)N(C1CCC(=O)NC1=O)C2=O (stereo partly drawn) [P2, 4-(((4-(((R)-1-(3-amino-S-(trifluoromethyl)phenyl)ethyl)amino)-6-methoxy-2-methylquinazolin-7-yl)oxy)methyl)-2-(2,6-dioxopiperidin-3-yl)isoindoline-1,3-dione]
